Measurements reported in US20200253979A1, “THERAPEUTIC METHODS RELATING TO HSP90 INHIBITORS” (AI Therapeutics, Inc., priority 2017, published 2020).
Like-named read-outs stand apart in the source and are kept apart here.

Assays:
[1] = test system: EGFR exon20 V769_D770insASV mutant in BaF3 cells; test: Cell surface EGFR expression in BaF3 cells by flow cytometry; format: cell-based, murine; conditions: Mus musculus; BaF3, 24 hours; read-out: EC50 for reduction of cell surface EGFR exon20 V769_D770insASV mutant
Text: (§1) To determine whether MPC-0767 can also promote degradation of an EGFR exon20ins mutant, the BaF3 murine cell line was used (Warmuth et al., Curr Opin Oncol., 200719: 55-60). This cell line is dependent upon exogenous IL-3 for survival/growth but upon introduction of an oncogene, the cells no longer depend on exogenous IL-3, and instead survival is driven by the introduced oncogene. Thus, drugs that target the introduced oncogene will reduce BaF3 cell viability providing a mechanism to screen small molecules against relevant oncogenic mutations that arise in the clinic.
(§2) BaF3 cells harboring EGFR wild type (WT) or EGFR exon20 V769_D770insASV mutant were treated with increasing concentrations of MPC-0767 for 24 hours. After this time, cells were harvested for flow cytometry to assess cell surface EGFR expression (antibody for detection recognized both WT and mutant proteins). […] We further tested whether this finding translated to reduced survival in BaF3 cells expressing the EGFR mutant. Parental BaF3 cells (no mutant) or cells harboring EGFR exon20 V769_D770insASV were treated with increasing concentrations of MPC-0767 for 72 hours after which cell viability was determined using CellTiter-Glo®.

[2] = test system: EGFR wild type (WT) in BaF3 cells; test: as above; format: cell-based, murine; conditions: Mus musculus; BaF3, 24 hours; read-out: EC50 for reduction of cell surface EGFR WT
Text: as §1, §2

MOLM-14 cells (FLT3-ITD) = test: CellTiter-Glo cell viability (single agent and combination); format: cell-based; conditions: 72 hours; for IC50: Homo sapiens, MOLM-14, 72 h, read-out: EC50 (cell viability)
Experimental: HS-5 is a human marrow stromal cell line that secretes various growth factors sufficient to support hematopoietic progenitor growth (Roecklein et al., Blood, 1995) which thus mimics stromal conditions.
(§3) Three cell lines which harbor FLT3-ITD were used for the drug combination studies (MV-4-11, MOLM-13, and MOLM-14).
(§4) Cells were treated with the drugs (single agent or combination) for 72 hours. Drug combination activity was determined by first measuring cell viability with CellTiter-Glo®, followed by the calculation of the EC50 corresponding to single agent activity, using the R DRC package (R Core Team, 2017). The combination index (CI) values were computed using the Chou-Talalay method (Chou T, Cancer Research., 2010 70(2): 440-6.), based on the viability of each drug alone and in combination, across all concentrations tested. In brief, CI was defined as: […]
(§5) Loss of function mutations of KDM6A are observed in FLT3-ITD AML (Garg et al., 2015 Blood 126 (22):2491-501). […] To therapeutically exploit this finding, we hypothesized that inhibiting EZH2, the histone H3K27 methyltransferase that functionally opposes KDM6A, would enhance sensitivity to MPC-0767. To test this hypothesis, a FLT3-ITD cell line (MV-4-11) was used and treated with either of the two clinical stage EZH2 inhibitors, EPZ-6438 and CPI-1205, at 8 different concentrations for 4 days. Following this time, cells were counted, reseeded and treated with 8 concentrations of EZH2 inhibitor alone, 8 concentrations of MPC-0767 alone, or the combination of the two (64 total combinations).

MV-4-11 cells (FLT3-ITD) = test: as above; format: cell-based; conditions: MV-4-11, MPC-0767 1 μM, 72 hours
Experimental: as §3, §4, §5

[3] = test system: BaF3 cells harboring FLT3-ITD; test: CellTiter-Glo cell viability; format: cell-based, murine; conditions: Mus musculus, 72 hours
Experimental: After this time cell viability was determined using CTG and EC50 values determined.
(§6) EC50 values were calculated using equation 1 (as described above).
BaF3 cells require the supplementation of IL-3 to activate the IL-3 receptor for growth. However, in BaF3 cells transfected with FLT3-ITD, cells no longer require IL3 as survival is solely driven by oncogenic FLT3 signaling.

[4] = test system: BaF3 cells harboring FLT3-ITD F691L; test: CellTiter-Glo cell viability; format: cell-based, murine; conditions: Mus musculus; BaF3 FLT3-ITD-F691L, 72 hours
Experimental: as §6

NOMO1 (NOMO-1) cells = test: CellTiter-Glo cell viability (single agent and combination); format: cell-based; conditions: NOMO1, 72 h
[5] = test system: MOLM-13 FLT3-ITD AML cell line; test: Systemic survival xenograft study, MPC-0767 single agent; conditions: vs vehicle
Experimental: Statistical significance was calculated using Log Rank (Mantel-Cox) test.
Before tumor cell inoculation, NOD/SCID mice were pre-treated for 2 days with a daily intraperitoneal injection of 100 mg/kg cyclophosphamide to facilitate engraftment of the human MOLM-13 tumor cells. After the injection of cyclophosphamide, the animals were allowed to recover for 24 hours prior to inoculation with human MOLM-13 tumor cells. Each mouse was then inoculated with 1×10^7 MOLM-13 cells in 100 μL PBS via intravenous tail vein injection. Mice were next randomized into 3 groups of 6. […] Viability and body weight loss were monitored daily.

[6] = test system: MOLM-13 FLT3-ITD AML cell line; test: Systemic survival xenograft study, MPC-0767 with venetoclax; conditions: MPC-0767 100-60 mg/kg QD×24, vs vehicle
Experimental: A systemic survival xenograft study was performed using the MOLM-13 FLT3-ITD harboring AML cell line.
Before tumor cell inoculation, NOD/SCID mice were pre-treated for 2 days with a daily intraperitoneal injection of 100 mg/kg cyclophosphamide to facilitate engraftment of the human MOLM-13 tumor cells. After the injection of cyclophosphamide, the animals were allowed to recover for 24 hours prior to inoculation with human MOLM-13 tumor cells. Each mouse was then inoculated with 1×10^7 MOLM-13 cells in 100 μL PBS via intravenous tail vein injection. Mice were next randomized into 4 groups of 6. […] Viability and body weight loss were monitored daily.

Work on `C[C@H](N)C(=O)O[C@@H](C)C(=O)N1CCC(CCn2c(Sc3cc4c(cc3Br)OCO4)nc3c(N)ncnc32)CC1` [MPC-0767] yielded an EC50 [1] of 200 nM, an EC50 [2] of 1000 nM and an IC50 (MOLM-14 cells (FLT3-ITD); MOLM-14, non-stromal media) of 423 nM. The IC50 (MOLM-14 cells (FLT3-ITD); MOLM-14, stromal media (HS-5 conditioned)) was 627 nM, the “viability of KDM6A sgRNA cells vs non-targeting sgRNA” value (MOLM-14 cells (FLT3-ITD); MOLM-14, MPC-0767 1 μM) was “conferred resistance to MPC-0767” and the “viability of KDM6A sgRNA cells vs non-targeting sgRNA” value (MV-4-11 cells (FLT3-ITD)) was “conferred resistance to MPC-0767”. The EC50 [3] was 497 nM, the EC50 [4] was 391 nM and the EC50 (NOMO1 (NOMO-1) cells; Homo sapiens, NOMO-1) was 1450 nM. For the same compound, the “MPC-0767 Sensitivity” value (NOMO1 (NOMO-1) cells) was “Resistant (EC50 values above 1 μM considered resistant)”, the “increase in median survival” value ([5]; 75 mg/kg once a day) was 1.5 days and the “increase in median survival” value ([5]; 150 mg/kg once a day) was 10 days. The “increase in median survival” value [6] was 3.5 days.
